In experiment [1] the test system is p-IKKα levels in L363 (NIK translocated multiple myeloma) cells. Put plainly: Effect of compounds on p-IKKα levels in L363 cells (AlphaLISA SureFire Ultra). Conditions: Homo sapiens, L-363, 6 h, BAFF stimulated, MG132, 6 h, average of values, read-out: Assay 2 IC50. The class given is cell-based, human. On the procedure: Effect of Compounds on p-IKKα Levels in L363 (NIK Translocated Multiple Myeloma) Cells
All compounds tested were dissolved and serially diluted in DMSO, 1:3 dilution for 11 points in an Echo compatible plate. 100% DMSO was added to columns 12 and 24 of the plate to serve as high and low signal controls. This compound plate was used to spot 20 nL of compound or DMSO into a Greiner 384 well TC plate (781080). The final DMSO concentration was 0.3% (v/v) in cell assays. Human L363 cells (ATCC) were cultured in RPM11640 medium supplemented with GlutaMax, non-essential amino acids, sodium pyruvate and 10% fetal bovine serum. Cells were routinely maintained at densities of […] at 37° C. in a humidified 5% CO2 atmosphere incubator. Cells were passaged twice a week splitting back to obtain the low density. The day before the assay, cells were washed twice in HBSS (Hank's Balanced Salt Solution), resuspended in Dulbecco's Modified Eagle Medium (DMEM)+0.5% IgG and protease free BSA (Jackson Immuno Research Laboratories), +/−250 ng/ml recombinant human B-cell activating factor (BAFF/BLyS/TNFSF13B) and incubated overnight at 37° C. in a humidified 5% CO2 atmosphere (bulk stimulation with or without BAFF). The next day, the cell concentration was adjusted to 1×10^7 cells/ml in DMEM+/−250 ng/ml BAFF+/−10 μM MG132 and plated at 10 μl/well into compound or DMSO spotted 384 well TC plates. Seeded cells were incubated at 37° C. in a humidified 5% CO2 atmosphere for 6 h. After 6 h, the plates were removed from the incubator and cell lysis was achieved by the addition of 2.5 μl 5× lysis buffer containing protease and phosphatase inhibitors, followed by shaking on a plate shaker at room temperature for 15 min. At the end of this incubation, lysed cells were sequentially treated and incubated with acceptor and donor bead mixes according to the manufacturer's protocol for a 1 plate/2-incubation suspension cell assay (AlphaLISA SureFire Ultra p-IKKa (Ser 176/180) Assay Kit (Perkin Elmer). Plates were read using an EnVision® Multilabel Plate Reader (Perkin Elmer). Within an experiment, a concentration response curve for each compound was run in duplicate. The signal obtained in the test wells was normalized using high signal (BAFF stimulated cells, DMSO, MG132) and low signal (unstimulated cells, DMSO) controls. To determine the IC50, a sigmoidal curve was fitted to the plot of % inhibition versus Log10 compound concentration.

In experiment [2] the target is recombinant human NF-kappaB-inducing kinase (NIK/MAP3K14) (Homo sapiens (Human), UniProt Q99558). The experiment in a line: Inhibition of auto-phosphorylation of recombinant human NIK/MAP3K14 (AlphaScreen). Conditions: NIK auto-phosphorylation, 5 μM ATP, 1 nM NIK, 2 h at 25° C.; average of values. The experiment is classed as biochemical. As for the experimental part:
Inhibition of auto-phosphorylation of recombinant human NF-kappaB-inducing kinase (NIK/MAP3K14) activity (AlphaScreen®)
NIK/MAP3K14 auto-phosphorylation activity was measured using the AlphaScreen® (αscreen) format (Perkin Elmer). All compounds tested were dissolved in dimethyl sulfoxide (DMSO) and further dilutions were made in assay buffer. The final DMSO concentration was 0.7% (v/v) in assays. The assay buffer was 50 mM Tris pH 7.5 containing 1 mM EGTA (ethylene glycol tetraacetic acid), 1 mM DTT (dithiothreitol), 0.1 mM Na3VO4, 5 mM MgCl2, and 0.01% Tween® 20. The assays were carried out in 384 well Proxiplates (Perkin Elmer). The incubations consisted of the compound, 5 μM Adenosine-5′-triphosphate (ATP), and 1 nM NIK/MAP3K14. Incubations were initiated by the addition of GST-tagged NIK/MAP3K14 enzyme, carried out for 2 h at 25° C. and terminated by addition of stop buffer containing anti-phospho-IKK Ser176/180 antibody. Protein A Acceptor and Glutathione-Donor beads were added before reading using an EnVision® Multilabel Plate Reader (Perkin Elmer). […] IC50's were determined by fitting a sigmoidal curve to % inhibition of control versus Log10 compound concentration.

The source of these data is patent US20240199605A1, “SMALL MOLECULAR INHIBITORS OF NF-kB INDUCING KINASE” (Janssen Pharmaceutica NV, priority 2019, published 2024).

Some results are limits rather than exact numbers.

recombinant human NF-kappaB-inducing kinase (NIK/MAP3K14), sequence (Q99558 whole entry): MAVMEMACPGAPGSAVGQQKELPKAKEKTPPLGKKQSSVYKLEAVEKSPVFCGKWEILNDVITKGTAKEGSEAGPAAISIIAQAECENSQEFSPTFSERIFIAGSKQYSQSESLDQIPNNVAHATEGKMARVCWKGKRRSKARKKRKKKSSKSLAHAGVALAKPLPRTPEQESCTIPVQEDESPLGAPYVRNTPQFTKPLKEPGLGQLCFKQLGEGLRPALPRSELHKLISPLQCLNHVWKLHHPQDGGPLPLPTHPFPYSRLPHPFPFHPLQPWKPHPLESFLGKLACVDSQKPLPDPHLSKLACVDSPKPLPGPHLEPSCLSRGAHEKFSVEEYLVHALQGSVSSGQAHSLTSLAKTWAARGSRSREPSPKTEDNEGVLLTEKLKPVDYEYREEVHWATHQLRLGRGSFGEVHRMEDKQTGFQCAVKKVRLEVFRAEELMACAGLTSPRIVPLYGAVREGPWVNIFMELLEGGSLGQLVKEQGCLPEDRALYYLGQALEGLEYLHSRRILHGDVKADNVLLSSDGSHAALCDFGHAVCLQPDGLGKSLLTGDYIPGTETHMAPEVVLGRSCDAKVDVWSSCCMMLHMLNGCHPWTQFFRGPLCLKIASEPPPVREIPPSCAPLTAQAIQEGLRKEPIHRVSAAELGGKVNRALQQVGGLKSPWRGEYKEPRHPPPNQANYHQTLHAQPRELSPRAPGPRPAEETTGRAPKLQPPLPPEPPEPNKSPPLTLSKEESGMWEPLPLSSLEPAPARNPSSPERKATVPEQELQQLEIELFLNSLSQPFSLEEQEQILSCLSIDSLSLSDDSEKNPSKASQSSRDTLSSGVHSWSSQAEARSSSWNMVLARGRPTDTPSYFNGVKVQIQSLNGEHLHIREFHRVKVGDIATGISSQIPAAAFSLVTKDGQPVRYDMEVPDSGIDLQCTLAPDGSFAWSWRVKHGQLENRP

With `COc1ccc(C#C[C@]2(O)CCN(C)C2=O)cc1-c1nc2c(N)ncnc2s1` [Example 194, (R)-3-((3-(7-Aminothiazolo[5,4-d]pyrimidin-2-yl)-4-methoxyphenyl)ethynyl)-3-hydroxy-1-methylpyrrolidin-2-one], the half-inhibitory concentration (IC50) in experiment [1] amounted to 8.3 nM; in experiment [2], 1 nM.
On the same counts, the results for `CN1CC[C@@](O)(C#Cc2cccc(-c3ncc4c(C#N)cnc(N)c4n3)c2)C1=O` [Example 100, (R)-8-Amino-2-(3-((3-hydroxy-1-methyl-2-oxopyrrolidin-3-yl)ethynyl)phenyl)pyrido[3,4-d]pyrimidine-5-carbonitrile] are 6.1 nM and at most 0.5 nM.
The matching figures for `CN1CC[C@](O)(C#Cc2cccc(-c3ncc4cc[nH]c(=O)c4n3)c2)C1=O` [Example 31, (S)-2-[3-[2-(3-Hydroxy-1-methyl-2-oxo-pyrrolidin-3-yl)ethynyl]phenyl]-7H-pyrido[3,4-d]pyrimidin-8-one]: 550 nM and 23 nM.
The matching figures for `Cc1nnc([C@](C)(O)C#Cc2ccc(C)c(-c3ccc4ccnc(N)c4c3)c2)o1` [Example 78, (R)-4-[3-(1-Amino-7-isoquinolyl)-4-methyl-phenyl]-2-(5-methyl-1,3,4-oxadiazol-2-yl)but-3-yn-2-ol]: over 5000 nM and 840 nM.
For `CN1CC[C@@](O)(C#Cc2cccc(-c3ccc4nc(CF)nc(N)c4n3)c2)C1=O` [Example 170, (R)-3-((3-(4-Amino-2-(fluoromethyl)pyrido[3,2-d]pyrimidin-6-yl)phenyl)ethynyl)-3-hydroxy-1-methylpyrrolidin-2-one], the IC50 in experiment [1] came to 22 nM; in experiment [2] it was 0.8 nM.
For the compound `CCOc1ncnc2ccc(-c3cccc(C#C[C@]4(O)CCN(C)C4=O)c3)nc12` [Example 24, (R)-3-((3-(4-Ethoxypyrido[3,2-d]pyrimidin-6-yl)phenyl)ethynyl)-3-hydroxy-1-methylpyrrolidin-2-one], the 50% inhibitory concentration (IC50) came to 4030 nM in experiment [1] and 260 nM in experiment [2].
As to `[2H]C([2H])([2H])N1CCC(O)(C#Cc2cccc(-c3ncc4c(C)cnc(N)c4n3)c2)C1=O` (stereo in doubt) [Example 87, (R)-3-[2-[3-(8-Amino-5-methyl-pyrido[3,4-d]pyrimidin-2-yl)phenyl]ethynyl]-3-hydroxy-1-(trideuteriomethyl)pyrrolidin-2-one], the IC50 was 6 nM in experiment [1] and at most 0.5 nM in experiment [2].
For the compound `CN1CC[C@@](O)(C#Cc2cccc(-c3ccc4ncnc(NCC#N)c4n3)c2)C1=O` [Example 240, (R)-2-((6-(3-((3-Hydroxy-1-methyl-2-oxopyrrolidin-3-yl)ethynyl)phenyl)pyrido[3,2-d]pyrimidin-4-yl)amino)acetonitrile], the IC50 in experiment [1] was found to be 570 nM; in experiment [2], 21 nM.
On the same counts, the results for `CN1CC[C@@](O)(C#Cc2cccc(-c3cc(OC(F)F)c4ncnc(N)c4n3)c2)C1=O` [Example 299, (R)-3-[2-[3-[4-Amino-8-(difluoromethoxy)pyrido[3,2-d]pyrimidin-6-yl]phenyl]ethynyl]-3-hydroxy-1-methyl-pyrrolidin-2-one] are 12 nM and 1.7 nM.
Take `CN1CC[C@@](O)(C#Cc2cccc(-c3ccc4ncnc(N5CCCCC5)c4n3)c2)C1=O` [Example 225, (R)-3-Hydroxy-1-methyl-3-((3-(4-(piperidin-1-yl)pyrido[3,2-d]pyrimidin-6-yl)phenyl)ethynyl)pyrrolidin-2-one]: the half-maximal inhibitory concentration (IC50) in experiment [1] turned out to be 600 nM; in experiment [2], 6.1 nM.
On the same counts, the results for `Cc1nc(N)c2nc(-c3cc(C#C[C@]4(O)CCN(C)C4=O)ccc3OC(F)(F)F)ccc2n1` [Example 237, (R)-3-((3-(4-Amino-2-methylpyrido[3,2-d]pyrimidin-6-yl)-4-(trifluoromethoxy)phenyl)ethynyl)-3-hydroxy-1-methylpyrrolidin-2-one] are 240 nM and 9.2 nM.
As for `COCc1nc(N)c2nc(-c3cccc(C#C[C@]4(O)CCN(C)C4=O)c3)ccc2n1` [Example 206, (R)-3-((3-(4-Amino-2-(methoxymethyl)pyrido[3,2-d]pyrimidin-6-yl)phenyl)ethynyl)-3-hydroxy-1-methylpyrrolidin-2-one], the IC50 is 160 nM in experiment [1] and 3.5 nM in experiment [2].
On the same counts, the results for `Cc1nc(N)c2nc(-c3cccc(C#C[C@]4(O)C[C@@H](C)N(C)C4=O)c3)ccc2n1` [Example 265, (3R,5R)-3-((3-(4-Amino-2-methylpyrido[3,2-d]pyrimidin-6-yl)phenyl)ethynyl)-3-hydroxy-1,5-dimethylpyrrolidin-2-one] are 28 nM and 1.9 nM.
On to `CN1CC[C@@](O)(C#Cc2cccc(-c3ccc4nc(C(F)(F)F)nc(N)c4n3)c2)C1=O` [Example 176, (R)-3-((3-(4-Amino-2-(trifluoromethyl)pyrido[3,2-d]pyrimidin-6-yl)phenyl)ethynyl)-3-hydroxy-1-methylpyrrolidin-2-one], for which the half-inhibitory concentration (IC50) worked out at 81 nM in experiment [1] and 1.4 nM in experiment [2].
With `Cc1ccc(-c2ncc3ccnc(N)c3n2)cc1C#C[C@]1(O)CCN(C)C1=O` [Example 40, (R)-3-((5-(8-Aminopyrido[3,4-d]pyrimidin-2-yl)-2-methylphenyl)ethynyl)-3-hydroxy-1-methylpyrrolidin-2-one], the IC50 stood at 210 nM in experiment [1] and 0.7 nM in experiment [2].
The matching figures for `CN1CC[C@@](O)(C#Cc2cccc(-c3ccc4c(CN5CCCC5)cnc(N)c4n3)c2)C1=O` [Example 171, (R)-3-[2-[3-[8-Amino-5-(pyrrolidin-1-ylmethyl)-1,7-naphthyridin-2-yl]phenyl]ethynyl]-3-hydroxy-1-methyl-pyrrolidin-2-one]: 180 nM and 4 nM.
Regarding `CN1CC[C@@](O)(C#Cc2cccc(-c3ccc4ncnc(N5CC(O)C5)c4n3)c2)C1=O` [Example 228, (R)-3-Hydroxy-3-((3-(4-(3-hydroxyazetidin-1-yl)pyrido[3,2-d]pyrimidin-6-yl)phenyl)ethynyl)-1-methylpyrrolidin-2-one], the concentration for half-maximal inhibition (IC50) in experiment [1] amounted to 300 nM; in experiment [2] it was 4.8 nM.
For the compound `CN1CC[C@@](O)(C#Cc2cccc(-c3nc4c(N)ncnc4s3)c2)C1=O` [Example 101, (R)-3-((3-(7-Aminothiazolo[5,4-d]pyrimidin-2-yl)phenyl)ethynyl)-3-hydroxy-1-methylpyrrolidin-2-one], the figures for the 50% inhibitory concentration (IC50) in experiment [1] and in experiment [2] were 26 nM and 1.2 nM, respectively.
Regarding `Cc1ccc(C#C[C@]2(O)CCN(C)C2=O)cc1-c1nc(C)c2ncnc(N)c2n1` [Example 301, (R)-3-[2-[3-(8-Amino-4-methyl-pyrimido[5,4-d]pyrimidin-2-yl)-4-methyl-phenyl]ethynyl]-3-hydroxy-1-methyl-pyrrolidin-2-one], the concentration for half-maximal inhibition (IC50) in experiment [1] turned out to be 48 nM; in experiment [2], 4.5 nM.
The matching figures for `Nc1ncnc2cnc(-c3cccc(C#C[C@@]4(O)CCc5cccnc54)c3)nc12` [Example 155, (S)-7-((3-(8-Aminopyrimido[5,4-d]pyrimidin-2-yl)phenyl)ethynyl)-6,7-dihydro-5H-cyclopenta[b]pyridin-7-ol]: 6.1 nM and at most 0.5 nM.
The matching figures for `C[C@@](O)(C#Cc1cccc(-c2ccc3ccnc(N)c3n2)c1)c1nccs1` [Example 90, (R)-4-[3-(8-Amino-1,7-naphthyridin-2-yl)phenyl]-2-thiazol-2-yl-but-3-yn-2-ol]: 70 nM and at most 0.5 nM.
